How the values were obtained:
JFH-1 HCV [1] = assay type: cell-based, Hepatitis C virus
Procedure: Huh7.5 cells were infected with JFH-1 HCV and maintained at 4°C for 4 hours (h) to synchronize the cells before shifting the temperature to 37°C. Post temperature shift (PTS), infected cells were incubated for various lengths of times prior to the addition of peptides or known inhibitors of HCV at 2 h intervals. […] We deliberately selected the final time point of 72 h PTS to reflect the number of cells infected by a second round of infection. […] This would be reflected by the number of cells infected in the second round as measured at 72 h PTS.
In order to elucidate the time points in infection when the nuclear transport signals bearing peptides are functional, cells were synchronously infected and treated with the indicated peptides. Each time point (2 h intervals) represents a culture treated with the indicated reagent at the specified time post temperature shift (PTS) and initiation of HCV infection. […] (A) Known inhibitors of HCV production (Ezetimibe (30 µM), LMB (18 nM), BMS-986094 (10 nM) and DGAT 1 inhibitor (10 nM)) and control (Pen peptide 100 µM, DMSO 2%, no treatment, and no infection) were examined. […] Error bars represent ± standard deviation, n = 3.
For the time of addition experiments, cells were seeded at a density of 6.25×10^4 cells/well in a 96-well plate and infected with 0.1 genomic equivalents of serially passaged JFH-1 virus on ice: cells then were incubated at 4°C for 4 h.
Briefly, Huh7.5 cells were infected as described above and the test compounds were added to different wells at different time points before the temperature shift (-4 h and -2 h) and every 2 h after the temperature shift (0, 2, 4,…, 48 h). […] The infection levels were calculated by counting infected and total cells numbers in ten random fields for each condition. The non-treated cell infection level was normalized to 100% and all other infections were calculated based on that normalization.

JFH-1 HCV [2] = settings: literature value; cited from earlier work
Procedure: Ezetimibe is known to inhibit a late stage of HCV entry, and it lost its ability to inhibit HCV infection when added 4–10 h PTS, thus defining the last phase of entry (Fig. 6A). […] In our study, the inhibitory effect of LMB was lost 10–14 hours PTS (Fig. 6A). BMS-986094, an inhibitor of NS5B polymerase, lost its ability to inhibit HCV infection when added 10–24 h PTS, thus defining the period of viral RNA synthesis (Fig. 6A). The ...

XPO1 = biological target: T1, XPO1 (Homo sapiens, UniProt O14980); assay: ELISA-based binding assay (Kd(app))
T1 construct: Expression and purification of full length XPO1 were perform according to methods described in a previous publication; His tag; made in house; host or cells: Escherichia coli BL21(DE3), pET21 vector

[3] = system: interaction of core, NS2, or NS3 with IPOA5; assay: Peptide competition of HCV protein-NTF interaction (ELISA in-vitro, Co-IP in cell culture); assay type: biochemical; settings: ELISA with 100 µM peptide and Co-IP of V5 tagged HCV proteins; n = 3
Procedure: (§1) To examine the specificity of the interactions between HCV proteins and NTFs, we examined the ability of each putative NLS or NES peptide identified in Fig. 1 to disrupt the interaction between the HCV protein and the NTF, using an ELISA in-vitro and co-immunoprecipitation (Co-IP) in cell culture assays (Fig. 3, S3 and S4 Figure). The ELISA plates were coated with HCV proteins while NTFs and competitive peptides were added, and the fraction of bound NTF was measured using NTF specific antibodies. The Co-IP was conducted by expression of V5 tagged HCV proteins in the presence of competing peptides, followed by immunoprecipitation with V5 specific antibody and immunoblotting with specific NTF antibodies.
(§2) Figure 3 Analysis of HCV protein binding to NTFs in the presence of NLS and NES peptides. ELISA plates were coated with HCV proteins and the relative binding of the different NTFs was monitored by ELISA in the presence of 100 µM of the indicated peptide. For the Co-IP study, cells were transfected by plasmid encoding to V5 tagged HCV proteins and treated by the indicated peptides. After 48 h, cells were lysed and Co-IP using anti V5 antibody and blotted to enable detection of the different NTFs. Western blots were quantified using Multi Gauge v. 3.0. […] The y-axis represents the percentage of NTF bound to the HCV protein; the interaction without the peptide is set to 100%. Error bars represent ± standard deviation, n = 3. The significant difference between the untreated (no peptide) and peptide treated is indicated by: * p<0.05, ** p<0.01, *** p<0.001, **** p<0.0001.
(§3) Protein-peptide and protein-protein binding were estimated using an ELISA-based binding assay as described previously. Briefly, ELISA plates were coated with 200 µl of a 10 µg/ml of synthetic peptide or recombinant protein in a carbonate buffer (0.05 M Na2CO3/0.05 M NaHCO3, pH 9.6) overnight at 4°C. After incubation, the solution was removed, and the plates were washed three times with PBS. […] Each measurement was performed in duplicate.

[4] = system: core- and NS2-XPO1 interactions; assay: as above; assay type: biochemical; settings: plates coated with HCV protein, 100 µM peptide, n = 3
Procedure: as §1, §2, §3

[5] = system: interaction of core, NS3, or NS5A with IPO5; assay: as above; assay type: biochemical; settings: ELISA with 100 µM peptide and Co-IP of V5 tagged HCV proteins; n = 3
Procedure: as §1, §2, §3

IPOA5 = biological target: T2, IPOA5 (Homo sapiens, UniProt P52294); assay: biochemical; assay type: binding; settings: ELISA, immobilized peptide or HCV protein
T2 construct: Expression and purification of full length IPOA5, IPO5 were perform according to methods described previously; His tag; made in house; host or cells: Escherichia coli BL21(DE3), pET21 vector

HEK293T cells = assay: Localization of nuclear transport signal-double GFP reporter in HEK293T cells; assay type: cell-based; set-up: key: +++ for strong; ++ for moderate; + for weak; − for no localization; settings: double GFP cargo, 24 h post transfection, fluorescence quantified with ImageJ (S6, S7 Figures); NES/SEN on SV40 NLS double GFP
Description: To determine whether NTF binding sites found in the HCV proteins were functional nuclear transport signals, we constructed reporter proteins each consisting of one of the HCV proteins NTF binding sites followed by two C-terminal, tandemly repeated GFP molecules. The double GFP moieties were required to keep the reporter from entering the nucleus, since a single GFP is small enough to diffuse freely through NPCs, [35]. As controls, constructs containing the reversed amino-acid residue sequence of the potential NLS (SLN) were also examined using the double GFP reporter assay (S5 Figure). These SLN reporters were predicted to not accumulate in the nucleoplasm. In addition, reporters to examine the functionality of the potential XPO1 binding domains were also constructed. These reporters consist of an SV40 NLS and a double GFP molecule followed by one of the various potential NESs at the C-terminus (S5 Figure). In the absence of a functional NES, this reporter will accumulate in the nucleus. However, a functional NES is predicted to export the reporter, leading to increased steady-state levels of the reporter in the cytoplasm.
Figure 4 Functionality of the putative nuclear transport signals in cells. Cells were transfected by the vectors encoding a nuclear transport reporter consisting of a tandemly repeated double GFP fused to the indicated C-terminal nuclear transport signal (panels A-N). At 24 h following transfection, cells were fixed and stained with Hoechst to visualize the nucleus. Cells were examined using a Zeiss inverted Axiovert 200 M microscope to assess the localization of the GFP (green) and its relationship to the nucleus (blue). A hashed yellow square demarcates the magnified area shown in the right-most image of each panel. Fluorescent intensity was quantified using ImageJ v. […] Analysis of the reverse sequences of each transport signal as well as the mutant SV40 NLS was also performed and the results are shown in S7 Figure.
Nuclear transport signals-double GFP constructs were transfected into HEK293T cells using lipofectamine 2000. At 24 h post transfection cells were fixed, stained, and visualized for localization of the GFP. For detailed information see S1 Methods.
Nuclear transport signal-double GFP constructs were transfected into HEK293T cells using lipofectamine 2000 reagent (Invitrogen, 11668019). At 24 h post transfection cells were fixed with 3.76% formaldehyde at room temperature (Sigma, F8775-500ML) for 8 min then permeabilized in 0.2% Triton X-100 (VWR, CA97062-208) for 2 min. Cells were washed three times with X1 PBS and were stained with Hoechst 1:5000 in X1 PBS for 5 min followed by three washes with X1 PBS. The cells were visualized using a Zeiss inverted Axiovert 200M microscope with a 20x/0.8 objective lens to examine localization of the GFP. At least ten random fields of cells were imaged for each combination. Channels were merged using ImageJ software (National Institutes of Health). Photoshop Elements 10 (Adobe) software was used to adjust brightness and contrast levels for individual images and to assemble images into figures.

T1 sequence (O14980 whole entry): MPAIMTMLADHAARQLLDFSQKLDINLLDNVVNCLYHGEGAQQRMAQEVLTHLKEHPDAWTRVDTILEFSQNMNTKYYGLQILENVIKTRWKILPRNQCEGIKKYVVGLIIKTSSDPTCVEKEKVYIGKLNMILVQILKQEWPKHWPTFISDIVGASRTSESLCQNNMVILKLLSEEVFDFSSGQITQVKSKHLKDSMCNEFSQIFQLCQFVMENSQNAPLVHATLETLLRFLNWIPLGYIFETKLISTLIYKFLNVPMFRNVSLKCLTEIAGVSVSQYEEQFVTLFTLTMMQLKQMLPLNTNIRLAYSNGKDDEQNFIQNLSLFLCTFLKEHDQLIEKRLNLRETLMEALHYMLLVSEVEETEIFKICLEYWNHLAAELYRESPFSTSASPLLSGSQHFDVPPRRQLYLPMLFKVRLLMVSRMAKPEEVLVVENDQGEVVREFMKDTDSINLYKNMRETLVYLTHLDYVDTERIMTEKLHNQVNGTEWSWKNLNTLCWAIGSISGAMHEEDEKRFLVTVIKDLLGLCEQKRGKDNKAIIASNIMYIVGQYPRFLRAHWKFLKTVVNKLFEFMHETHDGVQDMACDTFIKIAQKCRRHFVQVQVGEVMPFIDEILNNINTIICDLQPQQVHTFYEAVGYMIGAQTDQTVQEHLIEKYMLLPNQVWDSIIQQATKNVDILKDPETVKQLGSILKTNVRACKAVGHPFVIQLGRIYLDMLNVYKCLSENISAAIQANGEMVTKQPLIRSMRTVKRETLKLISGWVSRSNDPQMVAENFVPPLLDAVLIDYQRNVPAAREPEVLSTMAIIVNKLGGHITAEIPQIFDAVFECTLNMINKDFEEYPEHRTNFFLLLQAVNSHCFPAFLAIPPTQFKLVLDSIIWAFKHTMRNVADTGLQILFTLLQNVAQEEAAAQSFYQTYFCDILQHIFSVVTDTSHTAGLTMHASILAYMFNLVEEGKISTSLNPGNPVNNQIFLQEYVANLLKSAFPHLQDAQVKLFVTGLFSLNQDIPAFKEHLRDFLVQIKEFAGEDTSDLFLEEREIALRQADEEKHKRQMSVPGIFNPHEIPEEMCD
T2 sequence (P52294 whole entry): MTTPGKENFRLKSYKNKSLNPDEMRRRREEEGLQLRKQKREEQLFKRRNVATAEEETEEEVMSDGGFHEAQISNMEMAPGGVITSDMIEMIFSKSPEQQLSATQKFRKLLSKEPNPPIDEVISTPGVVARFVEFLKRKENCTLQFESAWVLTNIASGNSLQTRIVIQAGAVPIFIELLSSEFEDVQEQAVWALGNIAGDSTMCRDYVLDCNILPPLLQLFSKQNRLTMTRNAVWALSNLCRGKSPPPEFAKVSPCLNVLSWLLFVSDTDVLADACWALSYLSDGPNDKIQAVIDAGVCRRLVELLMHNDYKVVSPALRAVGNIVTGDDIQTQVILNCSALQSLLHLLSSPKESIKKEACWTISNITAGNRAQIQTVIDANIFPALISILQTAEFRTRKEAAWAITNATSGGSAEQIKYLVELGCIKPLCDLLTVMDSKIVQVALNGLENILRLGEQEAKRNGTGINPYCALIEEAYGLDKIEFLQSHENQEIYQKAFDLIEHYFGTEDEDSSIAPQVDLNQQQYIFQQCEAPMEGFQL

For `O=C1[C@H](CC[C@H](O)c2ccc(F)cc2)[C@@H](c2ccc(O)cc2)N1c1ccc(F)cc1` [Ezetimibe], the “time of addition at which the ability to inhibit HCV infection is lost” value (JFH-1 HCV [1]; Huh7.5, JFH-1, 4 h at 4°C then 37°C, added at 2 h intervals, % NS5A-positive cells at 72 h PTS, Ezetimibe 30 µM, LMB 18 nM, BMS-986094 10 nM, DGAT 1 inhibitor 10 nM, n = 3) was 4–10 h PTS.

In the case of `CCC(=C/[C@H](C)C/C=C/C(C)=C/[C@@H](C)C(=O)[C@@H](C)[C@H](O)[C@@H](C)C/C(C)=C/C(=O)O)/C=C/[C@@H]1OC(=O)C=C[C@@H]1C` [LMB, Leptomycin B], the “time at which the inhibitory effect on HCV was lost” value (JFH-1 HCV [2]) is given as 8 h post infection.

Compound `CC[C@H](C)[C@H](NC(=O)[C@H](CC(C)C)NC(=O)[C@H](CCCNC(=N)N)NC(=O)[C@H](C)NC(=O)[C@H](CC(C)C)NC(=O)[C@H](Cc1ccccc1)NC(=O)[C@H](CC(C)C)NC(=O)[C@H](CCCCN)NC(=O)[C@H](Cc1ccc(O)cc1)NC(=O)[C@H](Cc1c[nH]cn1)NC(=O)[C@@H]1CCCN1C(=O)[C@H](CO)NC(=O)[C@H](CC(C)C)NC(=O)[C@@H](NC(=O)[C@H](CC(C)C)NC(=O)[C@H](CC(C)C)NC(=O)[C@@H](NC(=O)[C@@H](N)CC(C)C)[C@@H](C)CC)[C@@H](C)O)C(=O)N[C@@H](Cc1c[nH]c2ccccc12)C(=O)N[C@@H](Cc1c[nH]c2ccccc12)C(=O)N[C@@H](CC(C)C)C(=O)N[C@@H](CCC(N)=O)C(=O)N[C@@H](Cc1ccc(O)cc1)C(=O)N[C@@H](Cc1ccccc1)C(=O)N[C@H](C(=O)N[C@H](C(=O)N[C@@H](CCCNC(=N)N)C(=O)N[C@@H](CCC(N)=O)C(=O)N[C@H](C(=O)N[C@@H](CCCCN)C(=O)N[C@H](C(=O)N[C@@H](Cc1c[nH]c2ccccc12)C(=O)N[C@@H](Cc1ccccc1)C(=O)N[C@@H](CCC(N)=O)C(=O)N[C@@H](CC(N)=O)C(=O)N[C@@H](CCCNC(=N)N)C(=O)N[C@@H](CCCNC(=N)N)C(=O)N[C@@H](CCSC)C(=O)N[C@@H](CCCCN)C(=O)N[C@@H](Cc1c[nH]c2ccccc12)C(=O)N[C@@H](CCCCN)C(=O)N[C@@H](CCCCN)C(=O)O)[C@@H](C)CC)[C@@H](C)CC)[C@@H](C)O)[C@@H](C)CC` [NS2 NES] has a Kd (XPO1) of 79.9 ± 25.6 nM.

For “PKTKRKVRQIKIWFQNRRMKWKK [SV40 mut NLS, reference compound]”, the “effect of peptide on HCV protein-IPOA5 interaction (in words)” value [3] was “do not interfere with IPOA5, IPO5 or XPO1 binding”, the “effect of peptide on HCV protein-XPO1 interaction (in words), ELISA” value [4] was “do not interfere with IPOA5, IPO5 or XPO1 binding” and the “effect of peptide on HCV protein-IPO5 interaction (in words)” value [5] was “do not interfere with IPOA5, IPO5 or XPO1 binding”. The “binding to IPOA5 (in words)” value (IPOA5) was “does not bind IPOA5”, the “Localization Cytoplasmic” value (HEK293T cells) was “+++” and the “Localization Nuclear” value (HEK293T cells) was “−”.

In the case of RQIKIWFQNRRMKWKK [Pen], the “effect on infection (in words)” value (JFH-1 HCV [1]; Pen peptide 100 µM, time of addition experiment) is reported as “had no effect on infection”, the “effect of peptide on HCV protein-IPOA5 interaction (in words)” value [3] is reported as “do not interfere with IPOA5, IPO5 or XPO1 binding” and the “effect of peptide on HCV protein-XPO1 interaction (in words), ELISA” value [4] is reported as “do not interfere with IPOA5, IPO5 or XPO1 binding”. For the same compound, the “effect of peptide on HCV protein-IPO5 interaction (in words)” value [5] was “do not interfere with IPOA5, IPO5 or XPO1 binding”.

From PMC4259358, “Functional Characterization of Nuclear Localization and Export Signals in Hepatitis C Virus Proteins and Their Role in the Membranous Web” (PLoS ONE, 2014)
